Experimental data from ChEMBL document CHEMBL1201862, “PubChem BioAssay data set” (2004).
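Tested at 5 concentrations; 48 h exposure; 96-well plates; endpoints linearly interpolated, else capped at highest concentration. GI50 is the concentration that inhibits growth by half.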 Calls of active or inactive are those of the source. Cut-off read from the data, not from the text of the source: active = GI50 up to about 1.1 µM and inactive = higher.

How the values were obtained:
Assay in all cases: NCI anticancer screen, dose series, 48 h
SF-295 = tested on: SF-295
K562 = tested on: K562
RXF 393 = tested on: RXF 393
LXFL 529 = tested on: LXFL 529
RXF 631 = tested on: RXF 631
SF-539 = tested on: SF-539
MOLT-4 = tested on: MOLT-4
SK-MEL-2 = tested on: SK-MEL-2
NCI-H226 = tested on: NCI-H226
SNB-75 = tested on: SNB-75
LOX IMVI = tested on: LOX IMVI
A549 = tested on: A549
ACHN = tested on: ACHN
SNB-78 = tested on: SNB-78
SR = tested on: SR
IGROV-1 = tested on: IGROV-1
UACC-62 = tested on: UACC-62
U-251 = tested on: U-251
HOP-18 = tested on: HOP-18
SK-MEL-28 = tested on: SK-MEL-28
SNB-19 = tested on: SNB-19
RPMI-8226 = tested on: RPMI-8226
EKVX = tested on: EKVX
SW-620 = tested on: SW-620
HOP-62 = tested on: HOP-62
M14 = tested on: M14
SK-OV-3 = tested on: SK-OV-3
NCI-H23 = tested on: NCI-H23
A498 = tested on: A498
SN12C = tested on: SN12C
786-0 = tested on: 786-0
HL-60 = tested on: HL-60
SF-268 = tested on: SF-268
HCT-15 = tested on: HCT-15
DLD-1 = tested on: DLD-1
OVCAR-3 = tested on: OVCAR-3
M19-MEL = tested on: M19-MEL
KM12 = tested on: KM12
Malme-3M = tested on: Malme-3M
KM-20L2 = tested on: KM-20L2
SK-MEL-5 = tested on: SK-MEL-5
COLO 205 = tested on: COLO 205
OVCAR-4 = tested on: OVCAR-4
UO-31 = tested on: UO-31

Measured: GI50

C=CC1C(OC2OC(CO)C(O)C(O)C2O)OC=C(C(=O)OC)C1CC=O (centres undefined)
inactive: SF-295 > 100 µM | K562 > 100 µM | RXF 393 > 100 µM | LXFL 529 > 100 µM | RXF 631 > 100 µM | SF-539 > 100 µM | MOLT-4 > 100 µM | SK-MEL-2 > 100 µM | NCI-H226 37.8 µM | SNB-75 > 100 µM | LOX IMVI > 100 µM | A549 > 100 µM | ACHN > 100 µM | SNB-78 > 100 µM | SR > 100 µM | IGROV-1 > 100 µM | UACC-62 > 100 µM | U-251 > 100 µM | HOP-18 > 100 µM | SK-MEL-28 > 100 µM | SNB-19 > 100 µM | RPMI-8226 > 100 µM | EKVX > 100 µM | SW-620 81.8 µM | HOP-62 > 100 µM | M14 > 100 µM | SK-OV-3 > 100 µM | NCI-H23 > 100 µM | A498 > 100 µM | SN12C > 100 µM | 786-0 > 100 µM | HL-60 > 100 µM | SF-268 > 100 µM | DLD-1 > 100 µM | OVCAR-3 > 100 µM | M19-MEL > 100 µM | KM12 > 100 µM | Malme-3M > 100 µM | KM-20L2 > 100 µM | SK-MEL-5 > 100 µM | COLO 205 > 100 µM | OVCAR-4 > 100 µM | UO-31 > 100 µM
> 100 µM: HCT-15
